Laboratory results reported in PMC7261837, “Circumdatin D Exerts Neuroprotective Effects by Attenuating LPS-Induced Pro-Inflammatory Responses and Downregulating Acetylcholinesterase Activity In Vitro and In Vivo” (Frontiers in Pharmacology, 2020).

Experiments:
BV-2 cells = assay: MTT cytotoxicity / cell survivability in BV-2 cells; type: cell-based, murine; conditions: 1 μg/ml LPS, doses 0–100 μM, 48 h
Experimental: In vitro cytotoxicity was detected using the MTT assay. Cells were treated with different concentrations of circumdatins in the presence or absence of LPS for 48 h. Then, MTT reagent was added to each well and the plates were further incubated at 37°C for 4 h. The absorbance was read at 570 nm using a microplate spectrophotometer (Thermo Scientifics, USA).
Cell surviability was detected using the MTT assay. Cells were seeded in 96-well plates and incubated overnight, following which the cells were treated with different concentrations of circumdatins with or without 1µg/mL of LPS for indicated time. Then, the cells were subsequently cultured with MTT and incubated for 4 hours at 37°C. Thereafter, the purple formazan dye was dissolved in DMSO and the absorbance was measured at 570 nm.

C. elegans CL4176 = assay: Paralysis assay in transgenic C. elegans CL4176; type: in vivo, Caenorhabditis elegans; conditions: 36 h after temperature upshift 16 to 25°C
Experimental: The in vivo effects of circumdatin D on pro-inflammatory response and AChE activity were evaluated using C. elegans as animal model. Transgenic C. elegans CL4176 and E. coli OP50 were bought from the Caenorhabditis Genetics Center (University of Minnesota, Minneapolis, MN, USA). CL4176 strain become paralysis after up-shifting temperature from 16 to 25°C due to expressing human β-amyloid peptide in muscle cells. The nematodes were cultivated on nematode growth medium (NGM) plates (1.7% Agar, 0.3% NaCl, 0.25% peptone, 1 mM CaCl2, 1 mM MgSO4, 5 mg/L cholesterol, and 2.5 mM K2HPO4) with E. coli OP50 at 16°C. In paralysis assay, egg-synchronized CL4176 nematodes were incubated on solid NGM plates with E. coli OP50 at 16°C. When the age of the worms grew to L4 stage, nematodes were divided into four groups and exposed to appropriate concentrations of circumdatin D or vehicle control (0.4% DMSO) at 16 °C for 36 h. The temperature was then raised from 16 to 25°C, the number of paralyzed worms was counted under the microscope. The paralyzed worms were recognized for those with no response or only moved head when gently touched with a platinum wire. Each independent assay included three NGM plates with 30 worms for each one. Likewise, the AChE activity and RT-PCR assay was employed using similar conditions.
In paralysis assay, CL4176 worms were egg-synchronized onto fresh NGM plates containing OP50 bacteria at 16℃. To induce the transgene expression, the temperature raised from 16 to 25℃ and lasted until the end of the paralysis assay. The recording was performed at two hours interval typically after 24h at 25 °C until the majority of worm became paralyzed. The worms were considered as paralyzed if there was no response or they only moved their head when gently touched with a platinum wire. Each independent assay included three NGM plates with twenty worms in each one.

NF-κB = NF-κB luciferase reporter assay; type: cell-based; conditions: Homo sapiens; SW480 cells stably transfected with NF-κB luciferase reporter gene, induced by LPS; mean ± SD (n = 3); read-out: NF-κB Activation IC50
Experimental: SW480-NF-κB cells were seeded at a density of 5 × 10^4 cells/well in 24-well plates and incubated with circumdatins with or without LPS stimulation for 6 h. The κB-dependent luciferase reporter activity in cell extracts was monitored using an automated microplate reader.

[1] = test system: JaK2/STAT3 signaling pathway; assay: JaK2/STAT3 phosphorylation and STAT3 translocation in LPS-induced BV-2 cells; type: cell-based, murine; conditions: 1 μg/ml LPS, 10, 20, 50 μM, 3 h
Experimental: BV2 cells were seeded on glass coverslips and treated with circumdatin D in the presence or absence of LPS for indicated time. After that, the cells were washed twice with PBS and fixed with cold 4% paraformaldehyde for 30 min. Then, the cells were permeabilized with 0.1% Triton X-100 for 10 min and blocked with 5% bovine serum albumin for 1 h. After incubation with primary antibodies overnight at 4°C, the cells were incubated with Alexa Fluor 488-conjugated secondary antibodies (Proteintech, USA) for 1 h at room temperature. Furthermore, Hochest 33342 was added to stain cell nuclei. Images were acquired and analyzed using a confocal microscope (Leica, Germany).
Total cell proteins were lysed using cell extraction buffer containing phenylmethylsulfonyl ﬂuoride and protease inhibitor cocktail. The cytosolic and nuclear extracts were collected using the Nuclear and Cytosolic extraction kit. The protein extracts were separated on SDS-PAGE and transferred to PVDF membranes (Millipore). The membrane was blocked with 5% nonfat milk for 1 h at room temperature, and incubated with indicated primary antibodies overnight at 4°C. After washing, the membrane was incubated with secondary antibodies conjugated to horseradish peroxidase (Proteintech, USA) at room temperature for 1 h. […] The relative optical densities were analyzed using the Image Master™ 2D Elite software.

ERK1/2-JNK1/2-p38 MAPKs = assay: MAPK phosphorylation in LPS-induced BV-2 cells (Western blot); type: cell-based, murine; conditions: 1 μg/ml LPS, 10, 20, 50 μM, 3 h
Experimental: Total cell proteins were lysed using cell extraction buffer containing phenylmethylsulfonyl ﬂuoride and protease inhibitor cocktail. The cytosolic and nuclear extracts were collected using the Nuclear and Cytosolic extraction kit. The protein extracts were separated on SDS-PAGE and transferred to PVDF membranes (Millipore). The membrane was blocked with 5% nonfat milk for 1 h at room temperature, and incubated with indicated primary antibodies overnight at 4°C. After washing, the membrane was incubated with secondary antibodies conjugated to horseradish peroxidase (Proteintech, USA) at room temperature for 1 h. Then, the proteins of interest were visualized utilizing a chemiluminescence (ECL) detection system. The relative optical densities were analyzed using the Image Master™ 2D Elite software.

`COc1ccc2c(c1)C(=O)N1CCC[C@H]1c1nc3ccc(OC)cc3c(=O)n1-2` [circumdatin D] was tested, and the “cytotoxicity in the presence of LPS (MTT)” value (BV-2 cells) was “did not induce significant cellular death”, the reduction of paralysis (C. elegans CL4176; CL4176, 50 μM) was “about 24.9%” and the reduction of paralysis (C. elegans CL4176; CL4176, 100 μM) was roughly 42.8%. For the same compound, the reduction of paralysis (C. elegans CL4176; CL4176, 200 μM) was roughly 74.8%, the IC50 (NF-κB) was 8.7 ± 1.3 µM and the “LPS-induced phosphorylation of JaK2” value [1] was “strongly reduced LPS-induced phosphorylation of JaK2”. For the same compound, the “phosphorylation and nuclear translocation of STAT3” value [1] was “effectively inhibited the phosphorylation and translocation of STAT3” and the “MAPK (ERK1/2, JNK1/2, p38) phosphorylation” value (ERK1/2-JNK1/2-p38 MAPKs) was “markedly suppressed the phosphorylation”.
